Results on 10 compounds are retold here after patent US20240279278A1, “NMU RECEPTOR 2 AGONISTS” (Boehringer Ingelheim International GmbH, priority 2023, published 2024).

Each structure is given as a SMILES string. Residues, ends and D or L forms follow the SMILES beside them.

The EC50 is the concentration at which the effect is half-maximal.

The target in this test is human NMUR2 receptor (Homo sapiens, UniProt Q9GZQ4). The experiment in a line: IP1 Gq HTRF assay, activation of human NMUR2 in human plasma. It counts as cell-based. The arrangement: expressed in transfected cells; host or cells: CHO-K1. The conditions noted are these: CHO-K1 cells expressing human NMUR2, 100% human plasma; read-out: EC50 (hNMUR2) human plasma. The method in brief: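 EC50 obtained via 4-parameter sigmoidal regression of HTRF IP-One signal (665 nm/620 nm), which falls as intracellular IP1 rises. Stimulation: 1 h, 37° C, peptides in human plasma plus 50 mM LiCl, 1% DMSO final, on NMUR2-expressing CHO-K1 cells, 8 concentrations.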
Chain of human NMUR2 receptor (Q9GZQ4 whole entry): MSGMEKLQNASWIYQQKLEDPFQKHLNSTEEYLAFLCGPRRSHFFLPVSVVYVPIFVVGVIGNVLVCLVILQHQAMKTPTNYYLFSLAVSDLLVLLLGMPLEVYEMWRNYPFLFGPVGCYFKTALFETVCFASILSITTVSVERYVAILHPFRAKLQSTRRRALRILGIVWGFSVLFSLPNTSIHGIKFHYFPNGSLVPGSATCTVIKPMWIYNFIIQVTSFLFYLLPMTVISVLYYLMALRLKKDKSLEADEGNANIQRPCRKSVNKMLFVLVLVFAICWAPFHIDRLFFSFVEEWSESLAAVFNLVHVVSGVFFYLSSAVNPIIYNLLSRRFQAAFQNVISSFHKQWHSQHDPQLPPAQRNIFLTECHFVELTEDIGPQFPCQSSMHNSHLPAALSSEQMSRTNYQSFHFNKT
With `CCCC[C@H](NC(=O)[C@H](CC(C)C)N(C)C(=O)[C@H](Cc1ccccc1)NC(=O)[C@H](Cc1ccc(O)cc1)NC(=O)CN1CCN(CCNC(=O)CN(C)C(=O)CN(C)C(=O)CN(C)C(=O)CN(C)C(=O)CN(C)C(=O)CN(C)C(=O)CN(C)C(=O)CN(C)C(=O)CN(C)C(=O)CN(C)C(=O)CN(C)C(=O)CN(C)C(=O)CC[C@H](NC(=O)CC[C@H](NC(=O)CC[C@H](NC(=O)CCCCCCCCCCCCCCCCCCC(=O)O)C(=O)O)C(=O)O)C(=O)O)CC1)C(=O)N[C@@H](CCCNC(=N)N)C(=O)N1CCC[C@H]1C(=O)N[C@@H](CCCNC(=N)N)C(=O)NCC(N)=O` [Compound 6, C20DA-gGlu3-Sar12-AEPipAc-Tyr-Phe-NMeLeu-Nle-Arg-Pro-Arg-Gly-NH2], the 50% effective concentration (EC50) is 6.9 nM.

For the compound `CCCC[C@H](NC(=O)[C@H](CC(C)C)N(C)C(=O)[C@H](Cc1ccccc1)NC(=O)[C@H](Cc1ccc(O)cc1)NC(=O)CN1CCN(CCNC(=O)CN(C)C(=O)CN(C)C(=O)CN(C)C(=O)CN(C)C(=O)CN(C)C(=O)CN(C)C(=O)CN(C)C(=O)CN(C)C(=O)CN(C)C(=O)CN(C)C(=O)CN(C)C(=O)CN(C)C(=O)CC[C@H](NC(=O)CC[C@H](NC(=O)CC[C@H](NC(=O)CCCCCCCCCCCCCCCCCCC(=O)O)C(=O)O)C(=O)O)C(=O)O)CC1)C(=O)N[C@@H](CCN)C(=O)N1CCC[C@H]1C(=O)N[C@@H](CCCNC(=N)N)C(=O)NCC(N)=O` [Compound 8, C20DA-gGlu3-Sar12-AEPipAc-Tyr-Phe-NMeLeu-Nle-Dbu-Pro-Arg-Gly-NH2], the EC50 is 9 nM.

Turning to `CCCC[C@H](NC(=O)[C@H](CC(C)C)N(C)C(=O)[C@H](Cc1ccccc1)NC(=O)[C@H](Cc1ccc(O)cc1)NC(=O)CN1CCN(CCNC(=O)CN(C)C(=O)CN(C)C(=O)CN(C)C(=O)CN(C)C(=O)CN(C)C(=O)CN(C)C(=O)CN(C)C(=O)CN(C)C(=O)CN(C)C(=O)CN(C)C(=O)CN(C)C(=O)CN(C)C(=O)CN(C)C(=O)CN(C)C(=O)CN(C)C(=O)CC[C@H](NC(=O)CC[C@H](NC(=O)CC[C@H](NC(=O)CCCCCCCCCCCCCCCCCCC(=O)O)C(=O)O)C(=O)O)C(=O)O)CC1)C(=O)N[C@@H](CCCNC(=N)N)C(=O)N1CCC[C@H]1C(=O)N[C@@H](CCCNC(=N)N)C(=O)NCC(N)=O` [Compound 9, C20DA-gGlu3-Sar15-AEPipAc-Tyr-Phe-NMeLeu-Nle-Arg-Pro-Arg-Gly-NH2] (HELM PEPTIDE1{[O=C(O)CCCCCCCCCCCCCCCCCCC(=O)[*:2]].[gGlu].[gGlu].[gGlu].[Sar].[Sar].[Sar].[Sar].[Sar].[Sar].[Sar].[Sar].[Sar].[Sar].[Sar].[Sar].[Sar].[Sar].[Sar].[O=C(CN1CCN(CCN[*:1])CC1)[*:2]].Y.F.[meL].[Nle].R.P.R.G.[am]}$$$$V2.0), the concentration giving a half-maximal response (EC50) turned out to be 5.8 nM.

With `CCCC[C@H](NC(=O)[C@H](CC(C)C)N(C)C(=O)[C@H](Cc1ccccc1)NC(=O)[C@H](Cc1ccc(O)cc1)NC(=O)CN1CCN(CCNC(=O)CN(C)C(=O)CN(C)C(=O)CN(C)C(=O)CN(C)C(=O)CN(C)C(=O)CN(C)C(=O)CN(C)C(=O)CN(C)C(=O)CN(C)C(=O)CN(C)C(=O)CN(C)C(=O)CN(C)C(=O)CN(C)C(=O)CN(C)C(=O)CN(C)C(=O)CC[C@H](NC(=O)CC[C@H](NC(=O)CC[C@H](NC(=O)CCCCCCCCCCCCCCCCCCC(=O)O)C(=O)O)C(=O)O)C(=O)O)CC1)C(=O)N[C@@H](CCCNC(=N)N)C(=O)N(C)[C@@H](C)C(=O)N[C@@H](CCCNC(=N)N)C(=O)NCC(N)=O` [Compound 10, C20DA-gGlu3-Sar15-AEPipAc-Tyr-Phe-NMeLeu-Nle-Arg-NMeAla-Arg-Gly-NH2] (HELM PEPTIDE1{[O=C(O)CCCCCCCCCCCCCCCCCCC(=O)[*:2]].[gGlu].[gGlu].[gGlu].[Sar].[Sar].[Sar].[Sar].[Sar].[Sar].[Sar].[Sar].[Sar].[Sar].[Sar].[Sar].[Sar].[Sar].[Sar].[O=C(CN1CCN(CCN[*:1])CC1)[*:2]].Y.F.[meL].[Nle].R.[meA].R.G.[am]}$$$$V2.0), the concentration giving a half-maximal response (EC50) turned out to be 9.8 nM.

On to `CCCC[C@H](NC(=O)[C@H](CC(C)C)N(C)C(=O)[C@H](Cc1ccccc1)NC(=O)[C@H](Cc1ccc(O)cc1)NC(=O)CN1CCN(CCNC(=O)CN(C)C(=O)CN(C)C(=O)CN(C)C(=O)CN(C)C(=O)CN(C)C(=O)CN(C)C(=O)CN(C)C(=O)CN(C)C(=O)CN(C)C(=O)CN(C)C(=O)CN(C)C(=O)CN(C)C(=O)CN(C)C(=O)CN(C)C(=O)CN(C)C(=O)CC[C@H](NC(=O)CC[C@H](NC(=O)CC[C@H](NC(=O)CCCCCCCCCCCCCCCCC(=O)O)C(=O)O)C(=O)O)C(=O)O)CC1)C(=O)N[C@@H](CCCNC(=N)N)C(=O)N(C)[C@@H](C)C(=O)N[C@@H](CCCNC(=N)N)C(=O)NCC(N)=O` [Compound 11, C18DA-gGlu3-Sar15-AEPipAc-Tyr-Phe-NMeLeu-Nle-Arg-NMeAla-Arg-Gly-NH2] (HELM PEPTIDE1{[O=C(O)CCCCCCCCCCCCCCCCC(=O)[*:2]].[gGlu].[gGlu].[gGlu].[Sar].[Sar].[Sar].[Sar].[Sar].[Sar].[Sar].[Sar].[Sar].[Sar].[Sar].[Sar].[Sar].[Sar].[Sar].[O=C(CN1CCN(CCN[*:1])CC1)[*:2]].Y.F.[meL].[Nle].R.[meA].R.G.[am]}$$$$V2.0), for which the 50% effective concentration (EC50) stood at 10.6 nM.

For the compound `CCCC[C@H](NC(=O)[C@H](CC(C)C)N(C)C(=O)[C@H](Cc1ccccc1)NC(=O)[C@H](Cc1ccc(O)cc1)NC(=O)CN1CCN(CCNC(=O)CN(C)C(=O)CN(C)C(=O)CN(C)C(=O)CN(C)C(=O)CN(C)C(=O)CN(C)C(=O)CN(C)C(=O)CN(C)C(=O)CN(C)C(=O)CN(C)C(=O)CN(C)C(=O)CN(C)C(=O)CC[C@H](NC(=O)CC[C@H](NC(=O)CC[C@H](NC(=O)CCCCCCCCCCCCCCCCC(=O)O)C(=O)O)C(=O)O)C(=O)O)CC1)C(=O)N[C@@H](CCCNC(=N)N)C(=O)N(C)[C@@H](C)C(=O)N[C@@H](CCCNC(=N)N)C(=O)NCC(N)=O` [Compound 12, C18DA-gGlu3-Sar12-AEPipAc-Tyr-Phe-NMeLeu-Nle-Arg-NMeAla-Arg-Gly-NH2], the EC50 came to 12.9 nM.

Consider `CCCC[C@H](NC(=O)[C@H](CC(C)C)N(C)C(=O)[C@H](Cc1ccccc1)NC(=O)[C@H](Cc1ccc(O)cc1)NC(=O)CN1CCN(CCNC(=O)CN(C)C(=O)CN(C)C(=O)CN(C)C(=O)CN(C)C(=O)CN(C)C(=O)CN(C)C(=O)CN(C)C(=O)CN(C)C(=O)CN(C)C(=O)CN(C)C(=O)CN(C)C(=O)CN(C)C(=O)CC[C@H](NC(=O)CC[C@H](NC(=O)CC[C@H](NC(=O)CCCCCCCCCCCCCCCCC(=O)O)C(=O)O)C(=O)O)C(=O)O)CC1)C(=O)N[C@@H](CCCN)C(=O)N(C)[C@@H](C)C(=O)N[C@@H](CCCNC(=N)N)C(=O)NCC(N)=O` [Compound 20, C18DA-gGlu3-Sar12-AEPipAc-Tyr-Phe-NMeLeu-Nle-Orn-NMeAla-Arg-Gly-NH2], for which the EC50 was 12.1 nM.

With `CCCC[C@H](NC(=O)[C@H](CC(C)C)N(C)C(=O)[C@H](Cc1ccccc1)NC(=O)[C@H](Cc1ccc(O)cc1)NC(=O)CN1CCN(CCNC(=O)CN(C)C(=O)CN(C)C(=O)CN(C)C(=O)CN(C)C(=O)CN(C)C(=O)CN(C)C(=O)CN(C)C(=O)CN(C)C(=O)CN(C)C(=O)CN(C)C(=O)CN(C)C(=O)CN(C)C(=O)CN(C)C(=O)CN(C)C(=O)CN(C)C(=O)CC[C@H](NC(=O)CC[C@H](NC(=O)CC[C@H](NC(=O)CCCCCCCCCCCCCCCCC(=O)O)C(=O)O)C(=O)O)C(=O)O)CC1)C(=O)N[C@@H](CCCN)C(=O)N1CCC[C@H]1C(=O)N[C@@H](CCCNC(=N)N)C(=O)NCC(N)=O` [Compound 21, C18DA-gGlu3-Sar15-AEPipAc-Tyr-Phe-NMeLeu-Nle-Orn-Pro-Arg-Gly-NH2] (HELM PEPTIDE1{[O=C(O)CCCCCCCCCCCCCCCCC(=O)[*:2]].[gGlu].[gGlu].[gGlu].[Sar].[Sar].[Sar].[Sar].[Sar].[Sar].[Sar].[Sar].[Sar].[Sar].[Sar].[Sar].[Sar].[Sar].[Sar].[O=C(CN1CCN(CCN[*:1])CC1)[*:2]].Y.F.[meL].[Nle].[Orn].P.R.G.[am]}$$$$V2.0), the EC50 came out at 8.7 nM.

Take `CCCC[C@H](NC(=O)[C@H](CC(C)C)N(C)C(=O)[C@H](Cc1ccccc1)NC(=O)[C@H](Cc1ccc(O)cc1)NC(=O)CN1CCN(CCNC(=O)CN(C)C(=O)CN(C)C(=O)CN(C)C(=O)CN(C)C(=O)CN(C)C(=O)CN(C)C(=O)CN(C)C(=O)CN(C)C(=O)CN(C)C(=O)CN(C)C(=O)CN(C)C(=O)CN(C)C(=O)CN(C)C(=O)CN(C)C(=O)CN(C)C(=O)CC[C@H](NC(=O)CC[C@H](NC(=O)CC[C@H](NC(=O)CCCCCCCCCCCCCCCCC(=O)O)C(=O)O)C(=O)O)C(=O)O)CC1)C(=O)N[C@@H](CCCN)C(=O)N(C)[C@@H](C)C(=O)N[C@@H](CCCNC(=N)N)C(=O)NCC(N)=O` [Compound 22, C18DA-gGlu3-Sar15-AEPipAc-Tyr-Phe-NMeLeu-Nle-Orn-NMeAla-Arg-Gly-NH2] (HELM PEPTIDE1{[O=C(O)CCCCCCCCCCCCCCCCC(=O)[*:2]].[gGlu].[gGlu].[gGlu].[Sar].[Sar].[Sar].[Sar].[Sar].[Sar].[Sar].[Sar].[Sar].[Sar].[Sar].[Sar].[Sar].[Sar].[Sar].[O=C(CN1CCN(CCN[*:1])CC1)[*:2]].Y.F.[meL].[Nle].[Orn].[meA].R.G.[am]}$$$$V2.0): the concentration giving a half-maximal response (EC50) turned out to be 10.8 nM.

In the case of `CCCC[C@H](NC(=O)[C@H](CC(C)C)N(C)C(=O)[C@H](Cc1ccccc1)NC(=O)[C@H](Cc1ccc(O)cc1)NC(=O)CN1CCN(CCNC(=O)CN(C)C(=O)CN(C)C(=O)CN(C)C(=O)CN(C)C(=O)CN(C)C(=O)CN(C)C(=O)CN(C)C(=O)CN(C)C(=O)CN(C)C(=O)CN(C)C(=O)CN(C)C(=O)CN(C)C(=O)CN(C)C(=O)CN(C)C(=O)CN(C)C(=O)CC[C@H](NC(=O)CC[C@H](NC(=O)CC[C@H](NC(=O)CCCCCCCCCCCCCCCCC(=O)O)C(=O)O)C(=O)O)C(=O)O)CC1)C(=O)N[C@@H](CCN)C(=O)N(C)[C@@H](C)C(=O)N[C@@H](CCCNC(=N)N)C(=O)NCC(N)=O` [Compound 23, C18DA-gGlu3-Sar15-AEPipAc-Tyr-Phe-NMeLeu-Nle-Dbu-NMeAla-Arg-Gly-NH2] (HELM PEPTIDE1{[O=C(O)CCCCCCCCCCCCCCCCC(=O)[*:2]].[gGlu].[gGlu].[gGlu].[Sar].[Sar].[Sar].[Sar].[Sar].[Sar].[Sar].[Sar].[Sar].[Sar].[Sar].[Sar].[Sar].[Sar].[Sar].[O=C(CN1CCN(CCN[*:1])CC1)[*:2]].Y.F.[meL].[Nle].[Dab].[meA].R.G.[am]}$$$$V2.0), the EC50 stood at 11.1 nM.
